Where “and” joins values, the source holds several entries; their conditions need not be identical. Equal values may be shown once.
System: 628569-122-R-J1-PDC complex spheroid viability
Assay: Anticancer human tumor 628569-122-R-J1-PDC patient-derived head and neck squamous carcinoma cell line growth inhibition [CLK]
Settings: for viability, T/C: stronger effect = lower value
Procedure, shortened: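 Multi-cell-type spheroids combined patient-derived tumor cells with HUVEC endothelial cells and human mesenchymal stem cells. Paired agents were dosed in half-log steps down from about clinical Cmax, or from 10 microM where Cmax was unknown.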
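Further: spheroids exposed to agents for seven days before readout.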
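Wherever viability, T/C is given: 100% = DMSO vehicle control viability.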

O=c1[nH]cc(F)c(=O)[nH]1 + CNC(=O)c1ccc(Nc2nc(OC3CCCC3)c3c(-c4ccc5nc(C)oc5c4)c[nH]c3n2)c(OC)c1
IC50 (curve of first compound, second compound 0.0316 µM): > 10 µM
IC50 (curve of first compound, second compound 0.1 µM): > 10 µM
IC50 (curve of first compound, second compound 0.316 µM): > 10 µM
IC50 (curve of first compound, second compound 1 µM): < 0.0316 µM
IC50 (curve of first compound, second compound 3.16 µM): < 0.0316 µM
IC50 (curve of first compound, second compound 10 µM): < 0.0316 µM
viability, T/C (second compound 0.0316 µM, first compound 0.0316 µM): 108%
viability, T/C (second compound 0.0316 µM, first compound 0.1 µM): 99.2%
viability, T/C (second compound 0.0316 µM, first compound 0.316 µM): 101%
viability, T/C (second compound 0.0316 µM, first compound 1 µM): 84.8%
viability, T/C (second compound 0.0316 µM, first compound 3.16 µM): 72.9%
viability, T/C (second compound 0.0316 µM, first compound 10 µM): 60.6%
viability, T/C (second compound 0.1 µM, first compound 0.0316 µM): 59.1%
viability, T/C (second compound 0.1 µM, first compound 0.1 µM): 52.6%
viability, T/C (second compound 0.1 µM, first compound 0.316 µM): 62.2%
viability, T/C (second compound 0.1 µM, first compound 1 µM): 52.7%
viability, T/C (second compound 0.1 µM, first compound 3.16 µM): 60.4%
viability, T/C (second compound 0.1 µM, first compound 10 µM): 49.8%
viability, T/C (second compound 0.316 µM, first compound 0.0316 µM): 50.9%
viability, T/C (second compound 0.316 µM, first compound 0.1 µM): 60.5%
viability, T/C (second compound 0.316 µM, first compound 0.316 µM): 52.4%
viability, T/C (second compound 0.316 µM, first compound 1 µM): 54%
viability, T/C (second compound 0.316 µM, first compound 3.16 µM): 60.3%
viability, T/C (second compound 0.316 µM, first compound 10 µM): 47.8%
viability, T/C (second compound 1 µM, first compound 0.0316 µM): 43.5%
viability, T/C (second compound 1 µM, first compound 0.1 µM): 50.4%
viability, T/C (second compound 1 µM, first compound 0.316 µM): 41.6%
viability, T/C (second compound 1 µM, first compound 1 µM): 52.3%
viability, T/C (second compound 1 µM, first compound 3.16 µM): 54.7%
viability, T/C (second compound 1 µM, first compound 10 µM): 47.7%
viability, T/C (second compound 3.16 µM, first compound 0.0316 µM): 44.9%
viability, T/C (second compound 3.16 µM, first compound 0.1 µM): 44.9%
viability, T/C (second compound 3.16 µM, first compound 0.316 µM): 48.8%
viability, T/C (second compound 3.16 µM, first compound 1 µM): 48.8%
viability, T/C (second compound 3.16 µM, first compound 3.16 µM): 48.8%
viability, T/C (second compound 3.16 µM, first compound 10 µM): 35.6%
viability, T/C (second compound 10 µM, first compound 0.0316 µM): 45.4%
viability, T/C (second compound 10 µM, first compound 0.1 µM): 37.9%
viability, T/C (second compound 10 µM, first compound 0.316 µM): 46%
viability, T/C (second compound 10 µM, first compound 1 µM): 46%
viability, T/C (second compound 10 µM, first compound 3.16 µM): 47.5%
viability, T/C (second compound 10 µM, first compound 10 µM): 45.3%

C=C(F)C(=O)N1CCN(c2nc(OCC3CCCN3C)nc3c2CCN(c2cccc4cccc(Cl)c24)C3)CC1CC#N (centres undefined)
viability, T/C (compound 0.0316 µM): 79.5% and 98.1%
viability, T/C (compound 0.1 µM): 108% and 77.6%
viability, T/C (compound 0.316 µM): 85.4% and 79.5%
viability, T/C (compound 1 µM): 93.6% and 82.5%
viability, T/C (compound 3.16 µM): 116% and 123%
viability, T/C (compound 10 µM): 12.6% and 30.3%
IC50 (curve of compound): 5.99 µM and 6.93 µM
